Consider 31 molecules from US10125126B2, “N-cycloalkyl-N-[(heterocyclylphenyl)methylene]-(thio)carboxamide derivatives” (BAYER CROPSCIENCE AG, priority 2012, dated 2018).

One data set deals with Sphaerotheca fuliginea. In words: In vivo preventive test on Sphaerotheca fuliginea (powdery mildew on cucurbits). The note with it: gherkin plants, 12 days after contamination. How it is done:
In Vivo Preventive Test on Sphaerotheca fuliginea (Powdery Mildew on Cucurbits) […] Gherkin plants (“Vert petit de Paris” variety), sown in starter cups on a 50/50 peat soil-pozzolana substrate and grown at 24° C., are treated at the Z11 cotyledon stage by spraying with the active ingredient prepared as described above. Plants, used as controls, are treated with the mixture of acetone/tween/DMSO/water not containing the active material. After 24 hours, the plants are contaminated by spraying the cotyledons with an aqueous suspension of Sphaerotheca fuliginea spores (100 000 spores per mL). The spores are collected from infected plants. […] Grading (% of efficacy) is carried out 12 days after the contamination, in comparison with the control plants.

A short description of data set [1]: log P by HPLC on a reversed-phase column (C 18), EEC Directive 79/831 Annex V.A8. Format: physicochemical. How it is done:
In table 1, the log P values were determined in accordance with EEC Directive 79/831 Annex V.A8 by HPLC (High Performance Liquid Chromatography) on a reversed-phase column (C 18), using the method described below: Temperature: 40° C.; Mobile phases: 0.1% aqueous formic acid and acetonitrile; linear gradient from 10% acetonitrile to 90% acetonitrile. Calibration was carried out using unbranched alkan-2-ones (comprising 3 to 16 carbon atoms) with known log P values (determination of the log P values by the retention times using linear interpolation between two successive alkanones). lambda-max-values were determined using UV-spectra from 200 nm to 400 nm and the peak values of the chromatographic signals.

The subject of a further data set is Puccinia recondita. The data set is described as follows: In vivo preventive test on Puccinia recondita (brown rust on wheat). The note with it: wheat plants, 12 days after contamination. How it is done: In Vivo Preventive Test on Puccinia recondita (Brown Rust on Wheat) […] Wheat plants (“Scipion” variety), sown in starter cups on a 50/50 peat soil pozzolana substrate and grown at 22° C., are treated at the 1 leaf stage (10 cm height) by spraying with the active ingredient prepared as described above. Plants, used as controls, are treated with the mixture of acetone/tween/DMSO/water not containing the active material. After 24 hours, the plants are contaminated by spraying the leaves with an aqueous suspension of Puccinia recondita spores (100 000 spores per mL). The spores are collected from an infected plant and are suspended in water containing 2.5 mL/L of Tween 80 at 10%. […] Grading (% of efficacy) is carried out 12 days after the contamination, in comparison with the control plants.

The subject of the next data set is Uromyces appendiculatus. In words: In vivo preventive test on Uromyces appendiculatus (bean rust). Particulars: bean plants, 11 days after contamination. As to the method: In Vivo Preventive Test on Uromyces appendiculatus (Bean Rust) […] Bean plants (“Saxa” variety), sown in starter cups on a 50/50 peat soil pozzolana substrate and grown at 24° C., are treated at the 2 leaf stage (9 cm height) by spraying with the active ingredient prepared as described above. Plants, used as controls, are treated with the mixture of acetone/tween/DMSO/water not containing the active material. After 24 hours, the plants are contaminated by spraying the leaves with an aqueous suspension of Uromyces appendiculatus spores (150 000 spores per mL). The spores are collected from infected plants and are suspended in water containing 2.5 mL/L of Tween 80 at 10%. […] Grading (% of efficacy) is carried out 11 days after the contamination, in comparison with the control plants.

Another data set has as its system Septoria tritici. The data set is described as follows: In vivo preventive test on Septoria tritici (wheat). Particulars: wheat plants, 24 days after contamination. How it is done: In Vivo Preventive Test on Septoria tritici (Wheat) […] Wheat plants (“Scipion” variety), sown in starter cups on a 50/50 peat soil pozzolana substrate and grown at 22° C., are treated at the 1 leaf stage (10 cm height) by spraying with the active ingredient prepared as described above. Plants, used as controls, are treated with the mixture of acetone/tween/DMSO/water not containing the active material. After 24 hours, the plants are contaminated by spraying the leaves with an aqueous suspension of cryopreserved Septoria tritici spores (500 000 spores per mL). The contaminated wheat plants are incubated for 72 hours at 18° C. and at 100% relative humidity, and then for 21 days at 90% relative humidity. Grading (% of efficacy) is carried out 24 days after the contamination, in comparison with the control plants.

The mark [2] stands for this setting: Podosphaera fuliginea, 288 h, 500 ppm of active ingredient, read-out: Efficacy.
[3] abbreviates: HPLC on reversed-phase column (C 18), 40° C., 0.1% aqueous formic acid and acetonitrile, linear gradient 10% to 90% acetonitrile.
Where [4] appears, read: reversed-phase HPLC column (C 18), HPLC, C 18, 40° C., 0.1% aqueous formic acid and acetonitrile, read-out: logP.

Read-outs that look alike come from different tables or passages of the source.

`Cn1cc(C(=O)N(Cc2ccc(-c3cccnc3)cc2Cl)C2CC2)c(C(F)F)n1` [CMP1, N-[2-chloro-4-(pyridin-3-yl)benzyl]-N-cyclopropyl-3-(difluoromethyl)-1-methyl-1H-pyrazole-4-carboxamide, reference compound]: the pest or weed control at 100 ppm in the data set with Sphaerotheca fuliginea (Podosphaera fuliginea, 288 h, 100 ppm of active ingredient, read-out: Efficacy) is 0%.
Consider `Cn1nc(C(F)F)c(C(=O)N(Cc2ccccc2-c2cccc(Cl)n2)C2CC2)c1F` [CMP3, N-[2-(6-chloropyridin-2-yl)benzyl]-N-cyclopropyl-3-(difluoromethyl)-5-fluoro-1-methyl-1H-pyrazole-4-carboxamide, reference compound], for which, in the data set with Sphaerotheca fuliginea (setting [2]), the pest or weed control at 500 ppm was below 40%.
On to `Cn1cc(C(=O)N(Cc2ccccc2-c2cccc(Cl)n2)C2CC2)c(C(F)F)n1` [CMP4, N-[2-(6-chloropyridin-2-yl)benzyl]-N-cyclopropyl-3-(difluoromethyl)-1-methyl-1H-pyrazole-4-carboxamide, reference compound], for which, in the data set with Sphaerotheca fuliginea (setting [2]), the pest or weed control at 500 ppm is below 40%.
As for `Cn1nc(C(F)F)c(C(=O)N(Cc2ccccc2-c2cccc(Cl)n2)C2CC2)c1Cl` [CMP5, 5-chloro-N-[2-(6-chloropyridin-2-yl)benzyl]-N-cyclopropyl-3-(difluoromethyl)-1-methyl-1H-pyrazole-4-carboxamide, reference compound], the pest or weed control at 500 ppm in the data set with Sphaerotheca fuliginea (setting [2]) is below 40%.
In the case of `Cn1nc(C(F)F)c(C(=O)N(Cc2cc(F)ccc2C2(C)CO2)C2CC2)c1Cl` (stereo not drawn) [I.8], the logP in data set [1] (setting [3]) was 3.00. Further, the values for the Efficacy with Puccinia recondita (100 ppm of active ingredient) and in the data set on Uromyces appendiculatus (100 ppm of active ingredient) were 94% and 95%, respectively.
Turning to `CC1OCC1c1ccccc1CN(C(=O)c1c(C(F)F)nn(C)c1Cl)C1CC1` (stereo not drawn) [I.16], in data set [1] (setting [3]), the logP is given as 2.08. The molecule further registered an Efficacy in the data set with Septoria tritici (500 ppm of active ingredient) of 90%.
The molecule `Cc1ccc(-c2ccoc2)c(CN(C(=O)c2c(C(F)F)nn(C)c2F)C2CC2)c1` [I.39] gave a logP in data set [1] (setting [3]) of 3.55. Besides, the Efficacy in the data set on Puccinia recondita (100 ppm of active ingredient) worked out at 88%; in the data set on Septoria tritici (100 ppm of active ingredient), 80%.
The molecule `Cc1ccc(-c2cnn(C)c2)c(CN(C(=O)c2c(C(F)F)nn(C)c2F)C2CC2)c1` [I.58] returned a logP in data set [1] (setting [3]) of 2.63. Besides, the Efficacy with Septoria tritici (100 ppm of active ingredient) is given as 97%.
As to `Cn1cc(C(=O)N(Cc2cc(Cl)ccc2-c2cccs2)C2CC2)c(C(F)F)n1` [I.71], the logP in data set [1] (setting [3]) was determined as 3.69. Besides, the Efficacy is listed as 90% in the data set on Septoria tritici (500 ppm of active ingredient), 98% in the data set with Sphaerotheca fuliginea (500 ppm of active ingredient) and 81% in the data set with Uromyces appendiculatus (500 ppm of active ingredient).
The molecule `Cn1nc(C(F)F)c(C(=O)N(Cc2cc(Cl)ccc2-c2cccs2)C2CC2)c1Cl` [I.77] returned a log partition coefficient (logP) in data set [1] (setting [3]) of 4.29. In the data set with Uromyces appendiculatus (500 ppm of active ingredient), this molecule yielded an Efficacy of 84%.
In data set [1] (setting [3]), `Cn1nc(C(F)F)c(C(=S)N(Cc2cc(Cl)ccc2-c2cccs2)C2CC2)c1Cl` [I.79] displayed a lipophilicity (logP) of 4.92. For the same molecule, the Efficacy with Septoria tritici (500 ppm of active ingredient) is on record as 75%; in the data set on Uromyces appendiculatus (500 ppm of active ingredient) it was 100%.
In data set [1] (setting [3]), `CC1CC1N(Cc1ccccc1-c1ccsc1)C(=O)c1c(C(F)F)nn(C)c1Cl` (stereo not drawn) [I.88] registered a logP of 3.92. Also, the Efficacy with Puccinia recondita (500 ppm of active ingredient) is 94%; in the data set with Septoria tritici (500 ppm of active ingredient) it was 79%.
As for `Cc1nn(C)c(C)c1-c1ccc(F)cc1CN(C(=O)c1c(C(F)F)nn(C)c1F)C1CC1` [I.112], the logP in data set [1] (setting [3]) is on record as 2.66. Also, the Efficacy in the data set with Puccinia recondita (500 ppm of active ingredient) is reported as 83%; in the data set on Septoria tritici (500 ppm of active ingredient), 100%; in the data set with Sphaerotheca fuliginea (500 ppm of active ingredient), 100%.
Consider `Cc1nn(C)c(C)c1-c1ccc(Cl)cc1CN(C(=O)c1c(C(F)F)nn(C)c1F)C1CC1` [I.113], for which the logP in data set [1] (setting [3]) amounted to 2.98. In addition, the Efficacy in the data set on Septoria tritici (500 ppm of active ingredient) came to 70%; in the data set on Sphaerotheca fuliginea (500 ppm of active ingredient), 98%.
For the molecule `Cc1ccc(-c2csc3ccccc23)c(CN(C(=O)c2c(C(F)F)nn(C)c2F)C2CC2)c1` [I.160], the logP in data set [1] (setting [3]) is on record as 4.64. Also, the Efficacy is on record as 71% in the data set with Septoria tritici (100 ppm of active ingredient), 98% with Sphaerotheca fuliginea (100 ppm of active ingredient) and 77% in the data set on Uromyces appendiculatus (100 ppm of active ingredient).
In data set [1] (setting [3]), `CC(c1ccccc1Cc1ccc(Cl)cn1)N(C(=O)c1c(C(F)F)nn(C)c1F)C1CC1` (stereo not drawn) [I.171] yielded a logP of 3.68.
`Clc1ccc(-c2ccco2)c(CNC2CC2)c1` [IIa.1, N-[5-chloro-2-(2-furyl)benzyl]cyclopropanamine]: the chromatographic logP in data set [1] (setting [4]) stood at 0.99.
For `Clc1ccc(-c2cccs2)c(CNC2CC2)c1` [IIa.2, N-[5-chloro-2-(2-thienyl)benzyl]cyclopropanamine], the chromatographic logP in data set [1] (setting [4]) is 1.1.
Regarding `c1ccc(-c2ccsc2)c(CNC2CC2)c1` [IIa.3, N-[2-(3-thienyl)benzyl]cyclopropanamine], the chromatographic logP in data set [1] (setting [4]) stood at 1.34.
Still for that read-out and setting: the value for `CC(NC1CC1)c1ccccc1-c1ccsc1` (stereo not drawn) [IIa.4, N-{1-[2-(3-thienyl)phenyl]ethyl}cyclopropanamine] was 1.42; that for `Clc1ccc(-c2ccsc2)c(CNC2CC2)c1` [IIa.5, N-[5-chloro-2-(3-thienyl)benzyl]cyclopropanamine] was 1.12; that for `Clc1ccc(-c2ccccc2CNC2CC2)s1` [IIa.6, N-[2-(5-chloro-2-thienyl)benzyl]cyclopropanamine] was 1.28.
On to `Clc1ccc(-c2ccc(Cl)s2)c(CNC2CC2)c1` [IIa.7, N-[5-chloro-2-(5-chloro-2-thienyl)benzyl]cyclopropanamine], for which the chromatographic logP in data set [1] (setting [4]) was 1.51.
Still for that read-out and setting: the value for `Clc1ccc(-c2ccco2)cc1CNC1CC1` [IIb.1, N-[2-chloro-5-(2-furyl)benzyl]cyclopropanamine] was 1.08; that for `Clc1ccc(-c2cccs2)cc1CNC1CC1` [IIb.2, N-[2-chloro-5-(2-thienyl)benzyl]cyclopropanamine] was 1.29; that for `Clc1ccc(-c2ccsc2)cc1CNC1CC1` [IIb.3, N-[2-chloro-5-(3-thienyl)benzyl]cyclopropanamine] was 1.28.
Take `Clc1ccc(-c2ccc(Cl)c(CNC3CC3)c2)s1` [IIb.4, N-[2-chloro-5-(5-chloro-2-thienyl)benzyl]cyclopropanamine]: in data set [1] (setting [4]), the chromatographic logP was 1.58.
For `CC(C)c1ccc(Cl)cc1CN(C(=O)c1c(C(F)F)nn(C)c1F)C1CC1` [N-(5-chloro-2-isopropylbenzyl)-N-cyclopropyl-3-(difluoromethyl)-5-fluoro-1-methyl-1H-pyrazole-4-carboxamide], the chromatographic logP in data set [1] (setting [4]) turned out to be 4.06.
`C=C(C)c1ccc(Cl)cc1CN(C(=O)c1c(C(F)F)nn(C)c1F)C1CC1` [N-[5-chloro-2-(prop-1-en-2-yl)benzyl]-N-cyclopropyl-3-(difluoromethyl)-5-fluoro-1-methyl-1H-pyrazole-4-carboxamide] yielded a chromatographic logP in data set [1] (logP) of 3.96.
Same read-out and setting: the value for `CC(C)c1ccc(Cl)cc1CNC(=O)c1c(C(F)F)nn(C)c1F` [Xa.1, N-(5-chloro-2-isopropylbenzyl)-3-(difluoromethyl)-5-fluoro-1-methyl-1H-pyrazole-4-carboxamide] was 3.46.
“N-cyclopropyl-3-(difluoromethyl)-5-fluoro-1-methyl-N-[2-(3-methyloxetan-3-yl)benzyl]-1H-pyrazole-4-carboxamide [I.15]”: the logP in data set [1] (setting [3]) amounted to 1.94; in data set [1] (HPLC, C 18, 40° C., 0.1% aqueous formic acid and acetonitrile), 1.94.

The logP is the decadic logarithm of the partition coefficient of the neutral form, usually between octanol and water.
